Results as given in BindingDB's records for doi:10.7270/Q2TX3CSC (Vanderbilt Screening Center for GPCRs, Ion Channels and …, 2009).
Non-standard residues stand in square brackets, D forms with d. Residues, ends and D or L forms follow the SMILES beside them. ξ: configuration not given here. *: point of attachment. ξF = NC(Cc1ccccc1)C(=O)O; Cbz = O=C(OCc1ccccc1)*

Target: T1, Solute carrier family 12 member 5 (Homo sapiens, UniProt Q9H2X9)
T1 sequence (Q9H2X9 whole entry): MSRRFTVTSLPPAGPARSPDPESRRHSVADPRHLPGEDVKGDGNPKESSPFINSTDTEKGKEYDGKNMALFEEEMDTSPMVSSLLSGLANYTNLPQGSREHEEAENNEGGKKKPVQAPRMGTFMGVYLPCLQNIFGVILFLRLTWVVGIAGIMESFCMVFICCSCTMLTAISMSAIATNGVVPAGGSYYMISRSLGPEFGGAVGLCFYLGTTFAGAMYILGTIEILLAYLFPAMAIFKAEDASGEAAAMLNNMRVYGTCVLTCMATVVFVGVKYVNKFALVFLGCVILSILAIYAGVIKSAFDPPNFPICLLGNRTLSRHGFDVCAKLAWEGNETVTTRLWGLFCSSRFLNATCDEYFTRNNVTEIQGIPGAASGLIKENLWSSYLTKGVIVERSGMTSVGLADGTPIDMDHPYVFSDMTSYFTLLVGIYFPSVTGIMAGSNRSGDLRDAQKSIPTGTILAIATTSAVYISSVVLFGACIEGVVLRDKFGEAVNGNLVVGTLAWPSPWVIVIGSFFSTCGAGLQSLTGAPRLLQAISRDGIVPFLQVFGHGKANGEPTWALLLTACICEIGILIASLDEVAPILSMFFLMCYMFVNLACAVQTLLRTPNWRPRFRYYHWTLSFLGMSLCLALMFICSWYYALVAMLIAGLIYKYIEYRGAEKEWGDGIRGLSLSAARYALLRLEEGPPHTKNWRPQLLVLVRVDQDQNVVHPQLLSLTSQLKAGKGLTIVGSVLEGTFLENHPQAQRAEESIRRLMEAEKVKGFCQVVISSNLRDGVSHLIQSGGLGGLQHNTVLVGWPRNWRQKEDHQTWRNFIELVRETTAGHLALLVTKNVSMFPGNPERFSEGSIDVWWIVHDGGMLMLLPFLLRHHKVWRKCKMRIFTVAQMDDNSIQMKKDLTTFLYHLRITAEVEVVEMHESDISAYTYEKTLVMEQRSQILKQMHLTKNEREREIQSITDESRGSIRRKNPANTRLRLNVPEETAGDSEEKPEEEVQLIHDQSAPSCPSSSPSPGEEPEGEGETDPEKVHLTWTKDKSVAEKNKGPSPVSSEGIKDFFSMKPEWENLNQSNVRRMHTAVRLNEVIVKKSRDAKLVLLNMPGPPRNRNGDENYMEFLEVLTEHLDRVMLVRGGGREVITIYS
Test: KCC2 modulator potency by thallium flux, dose response, cell-based, HEK293 KCC2, FluoZin-2 fluorescence (AID 1736)

[1] = inactive by the depositor's call

Row | Structure (SMILES) | EC50 [µM] | EC50 [1] [µM]
1 | O=C(NC(=S)Nc1nc(-c2cccc([N+](=O)[O-])c2)cs1)c1cc(Cl)ccc1Cl [2,5-bis(chloranyl)-N-[[4-(3-nitrophenyl)-1,3-thiazol-2-yl]carbamothioyl]benzamide] | 16.2 | –
2 | C=CCNc1oc(Cc2cccc3ccccc23)nc1C#N [2-(1-naphthalenylmethyl)-5-(prop-2-enylamino)-4-oxazolecarbonitrile] | 4.78 | –
3 | O=C(CSc1nnnn1-c1ccccc1)Nc1nsc(-c2ccccc2)n1 [2-(1-phenyltetrazol-5-yl)sulfanyl-N-(5-phenyl-1,2,4-thiadiazol-3-yl)acetamide] | – | 1.4
4 | O=C(CN1C(=O)NC2(CCCC2)C1=O)Nc1nc(-c2ccc(F)cc2)cs1 [2-(2,4-diketo-1,3-diazaspiro[4.4]nonan-3-yl)-N-[4-(4-fluorophenyl)thiazol-2-yl]acetamide] | 0.0699 | –
5 | O=C(COC(=O)c1cc([N+](=O)[O-])ccc1NCCO)c1ccccc1 [2-(2-hydroxyethylamino)-5-nitro-benzoic acid phenacyl ester] | 9.16 | –
6 | Cc1nc(CC(=O)Nc2nc(-c3ccccc3)cs2)cs1 [2-(2-methyl-1,3-thiazol-4-yl)-N-(4-phenyl-1,3-thiazol-2-yl)acetamide] | – | 1.81
7 | O=C(COc1ccc2ccccc2c1)NN=Cc1ccccn1 [2-(2-naphthalenyloxy)-N-(2-pyridinylmethylideneamino)acetamide] | – | 330
8 | O=C(Cn1nc(-c2ccccc2)ccc1=O)NCc1ccc2c(c1)OCO2 [2-(6-keto-3-phenyl-pyridazin-1-yl)-N-piperonyl-acetamide] | 3.26 | –
9 | O=C(COC(=O)c1cc([N+](=O)[O-])ccc1NCc1ccccc1)NC1CCCCC1 [2-(benzylamino)-5-nitro-benzoic acid [2-(cyclohexylamino)-2-keto-ethyl] ester] | 0.651 | –
10 | O=C(O)c1cc([N+](=O)[O-])ccc1NCc1ccccc1 [2-(benzylamino)-5-nitro-benzoic acid] | 4.19 | –
11 | O=[N+]([O-])c1ccc(CSc2nnc(SCc3ccccc3)s2)cc1 [2-(benzylthio)-5-[(4-nitrobenzyl)thio]-1,3,4-thiadiazole] | 2.24 | –
12 | COc1ccc(S(=O)(=O)N2CCC(C(=O)N3CCc4ccccc4C3)CC2)cc1C [2-({1-[(4-methoxy-3-methylphenyl)sulfonyl]-4-piperidinyl}carbonyl)-1,2,3,4-tetrahydroisoquinoline] | 5.4 | –
13 | O=C(CSc1nnnn1-c1ccc(Cl)cc1)N1CCc2ccccc2C1 [2-[1-(4-chlorophenyl)tetrazol-5-yl]sulfanyl-1-(3,4-dihydro-1H-isoquinolin-2-yl)ethanone] | 4.09 | –
14 | O=C(CSc1ccccc1C(=O)NCc1ccccc1)NC1CCCCCCC1 [2-[2-(cyclooctylamino)-2-oxidanylidene-ethyl]sulfanyl-N-(phenylmethyl)benzamide] | 51.6 | –
15 | O=C(Cn1cnc2c(nnn2Cc2ccc(F)cc2)c1=O)NCc1ccc2c(c1)OCO2 [2-[3-(4-fluorobenzyl)-7-keto-triazolo[4,5-d]pyrimidin-6-yl]-N-piperonyl-acetamide] | 1.69 | –
16 | Cc1ccc(C)c(NC(=O)CSc2nnc([C@@H](N)Cc3ccccc3)o2)c1 [2-[5-((S)-1-Amino-2-phenyl-ethyl)-[1,3,4]oxadiazol-2-ylsulfanyl]-N-(2,5-dimethyl-phenyl)-acetamide] | 5.54 | –
17 | CC1CCN(C(=O)CSc2ccc(-c3ccc(F)cc3)nn2)CC1 [2-[6-(4-Fluoro-phenyl)-pyridazin-3-ylsulfanyl]-1-(4-methyl-piperidin-1-yl)-ethanone] | 2.66 | –
18 | Cc1cc(NC(=O)CSc2ccc(-c3ccc(F)cc3)nn2)no1 [2-[6-(4-fluorophenyl)pyridazin-3-yl]sulfanyl-N-(5-methyl-1,2-oxazol-3-yl)acetamide] | 0.171 | –
19 | Cn1c(SCc2ccccc2Cl)nc2ccccc21 [2-[(2-chlorobenzyl)thio]-1-methyl-1H-benzimidazole] | 260 | –
20 | Cc1[nH]c2ccccc2c1SCC(=O)N1CCN(c2ccccc2)CC1 [2-[(2-methyl-1H-indol-3-yl)thio]-1-(4-phenyl-1-piperazinyl)ethanone] | 4.24 | –
21 | Cc1ccc(/C=C2/Sc3ccccc3N(CC(=O)NCCCOC(C)C)C2=O)cc1 [2-[(2E)-2-[(4-methylphenyl)methylidene]-3-oxidanylidene-1,4-benzothiazin-4-yl]-N-(3-propan-2-yloxypropyl)ethanamide] | 964 | –
22 | COc1ccc(S(=O)(=O)N(CCc2ccccc2)CC(=O)O)cc1Cl [2-[(3-chloranyl-4-methoxy-phenyl)sulfonyl-(2-phenylethyl)amino]ethanoic acid] | 7.63 | –
23 | CCOC(=O)CNC(=O)C(Cc1ccccc1)NC(=O)OCc1ccccc1 (stereo not given) [2-[[1-oxo-3-phenyl-2-(phenylmethoxycarbonylamino)propyl]amino]acetic acid ethyl ester] (Cbz-[ξF]-Gly-OEt) | 3.01 | –

Now from value to compound:

Row | EC50 [µM] | EC50 [1] [µM] | Structure (SMILES)
24 | 6.85 | – | O=C(c1ccc(S(=O)(=O)c2cccc(Cl)c2)c([N+](=O)[O-])c1)N1CCN(c2ccccn2)CC1 [1-{4-[(3-chlorophenyl)sulfonyl]-3-nitrobenzoyl}-4-pyridin-2-ylpiperazine]
25 | 2.79 | – | COc1cc(C=NNC(=O)CN(Cc2ccccc2)S(=O)(=O)c2ccc3c(c2)OCCO3)ccc1O [2,3-Dihydro-benzo[1,4]dioxine-6-sulfonic acid benzyl-(4-hydroxy-3-methoxy-benzylidene-hydrazinocarbonylmethyl)-amide]
26 | 1.32 | – | CCn1nnnc1SCC(=O)Nc1nc(-c2cccs2)cs1 [2-(1-Ethyl-1H-tetrazol-5-ylsulfanyl)-N-(4-thiophen-2-yl-thiazol-2-yl)-acetamide]
27 | 14.8 | – | Cn1c(CSc2nc3ccccc3s2)nc2ccccc21 [2-(1-Methyl-1H-benzoimidazol-2-ylmethylsulfanyl)-benzothiazole]
28 | – | 78.4 | Cn1cc(SCC(=O)N2CCN(c3ccccc3)CC2)c2ccccc21 [2-(1-methylindol-3-yl)sulfanyl-1-(4-phenylpiperazin-1-yl)ethanone]
29 | 17.2 | – | CCc1ccc(C(=O)COC(=O)c2cc([N+](=O)[O-])ccc2NCCO)cc1 [2-(2-hydroxyethylamino)-5-nitro-benzoic acid [2-(4-ethylphenyl)-2-keto-ethyl] ester]
30 | – | 0.733 | COc1ccccc1-c1nc(C#N)c(N2CCC(Cc3ccccc3)CC2)o1 [2-(2-methoxyphenyl)-5-[4-(phenylmethyl)-1-piperidinyl]-4-oxazolecarbonitrile]
31 | 11.3 | – | Cc1cc(C)c(C#N)c(N2CCN(Cc3ccccc3)CC2)n1 [2-(4-benzyl-1-piperazinyl)-4,6-dimethylnicotinonitrile]
32 | 27.5 | – | O=C(Cn1cnc2c(nnn2-c2ccccc2)c1=O)NCCc1ccccc1 [2-(7-keto-3-phenyl-triazolo[4,5-d]pyrimidin-6-yl)-N-phenethyl-acetamide]
33 | 7.39 | – | CCc1ccc(OCCNC(=O)c2ccccc2SCc2ccccc2)cc1 [2-(benzylthio)-N-[2-(4-ethylphenoxy)ethyl]benzamide]
34 | 2.98 | – | O=c1c2ccccc2c(-c2nnc(S)o2)nn1Cc1ccccc1 [2-(phenylmethyl)-4-(2-sulfanylidene-3H-1,3,4-oxadiazol-5-yl)-1-phthalazinone]
35 | 32 | – | NC(=O)COc1ccccc1/C=C1/SC(=O)N(CC(=O)N2CCc3ccccc3C2)C1=O [2-[2-({3-[2-(3,4-dihydro-2(1H)-isoquinolinyl)-2-oxoethyl]-2,4-dioxo-1,3-thiazolidin-5-ylidene}methyl)phenoxy]acetamide]
36 | 221 | – | O=[N+]([O-])c1cc(-n2c(O)c3c(c2O)CCCC3)ccc1NC1CCN(Cc2ccccc2)CC1 [2-[3-nitro-4-[[1-(phenylmethyl)-4-piperidinyl]amino]phenyl]-3a,4,5,6,7,7a-hexahydroisoindole-1,3-dione]
37 | 7.01 | – | O=C(CSc1nnc(-c2ccc(F)cc2)o1)N1CCN(C(=O)c2ccco2)CC1 [2-[5-(4-Fluoro-phenyl)-[1,3,4]oxadiazol-2-ylsulfanyl]-1-[4-(furan-2-carbonyl)-piperazin-1-yl]-ethanone]
38 | 3.48 | – | Cc1ccc(NC(=O)CSc2ccc(-c3ccco3)nn2)cc1 [2-[6-(furan-2-yl)pyridazin-3-yl]sulfanyl-N-(4-methylphenyl)acetamide]
39 | 7.26 | – | CCC(Cc1ccccc1)NC(=O)CN(C)S(=O)(=O)c1ccc2c(c1)c(=O)n(C)c(=O)n2C (stereo not given) [2-[(1,3-dimethyl-2,4-dioxo-6-quinazolinyl)sulfonyl-methylamino]-N-(1-phenylbutan-2-yl)acetamide]
40 | 1.17 | – | Cc1ccc(NC(=O)c2ccccc2NS(=O)(=O)c2ccc(Cl)s2)cc1 [2-[(5-chloranylthiophen-2-yl)sulfonylamino]-N-(4-methylphenyl)benzamide]
